For assay [1], the target named is T1, DNA polymerase of the present invention (Pyrococcus furiosus, UniProt P81409).
T1 construct: made in house; host or cells: Escherichia coli JM109 carrying pFU1001 (genomic XbaI-XbaI fragment in pTV118N)
T1 sequence (P81409 1-1263): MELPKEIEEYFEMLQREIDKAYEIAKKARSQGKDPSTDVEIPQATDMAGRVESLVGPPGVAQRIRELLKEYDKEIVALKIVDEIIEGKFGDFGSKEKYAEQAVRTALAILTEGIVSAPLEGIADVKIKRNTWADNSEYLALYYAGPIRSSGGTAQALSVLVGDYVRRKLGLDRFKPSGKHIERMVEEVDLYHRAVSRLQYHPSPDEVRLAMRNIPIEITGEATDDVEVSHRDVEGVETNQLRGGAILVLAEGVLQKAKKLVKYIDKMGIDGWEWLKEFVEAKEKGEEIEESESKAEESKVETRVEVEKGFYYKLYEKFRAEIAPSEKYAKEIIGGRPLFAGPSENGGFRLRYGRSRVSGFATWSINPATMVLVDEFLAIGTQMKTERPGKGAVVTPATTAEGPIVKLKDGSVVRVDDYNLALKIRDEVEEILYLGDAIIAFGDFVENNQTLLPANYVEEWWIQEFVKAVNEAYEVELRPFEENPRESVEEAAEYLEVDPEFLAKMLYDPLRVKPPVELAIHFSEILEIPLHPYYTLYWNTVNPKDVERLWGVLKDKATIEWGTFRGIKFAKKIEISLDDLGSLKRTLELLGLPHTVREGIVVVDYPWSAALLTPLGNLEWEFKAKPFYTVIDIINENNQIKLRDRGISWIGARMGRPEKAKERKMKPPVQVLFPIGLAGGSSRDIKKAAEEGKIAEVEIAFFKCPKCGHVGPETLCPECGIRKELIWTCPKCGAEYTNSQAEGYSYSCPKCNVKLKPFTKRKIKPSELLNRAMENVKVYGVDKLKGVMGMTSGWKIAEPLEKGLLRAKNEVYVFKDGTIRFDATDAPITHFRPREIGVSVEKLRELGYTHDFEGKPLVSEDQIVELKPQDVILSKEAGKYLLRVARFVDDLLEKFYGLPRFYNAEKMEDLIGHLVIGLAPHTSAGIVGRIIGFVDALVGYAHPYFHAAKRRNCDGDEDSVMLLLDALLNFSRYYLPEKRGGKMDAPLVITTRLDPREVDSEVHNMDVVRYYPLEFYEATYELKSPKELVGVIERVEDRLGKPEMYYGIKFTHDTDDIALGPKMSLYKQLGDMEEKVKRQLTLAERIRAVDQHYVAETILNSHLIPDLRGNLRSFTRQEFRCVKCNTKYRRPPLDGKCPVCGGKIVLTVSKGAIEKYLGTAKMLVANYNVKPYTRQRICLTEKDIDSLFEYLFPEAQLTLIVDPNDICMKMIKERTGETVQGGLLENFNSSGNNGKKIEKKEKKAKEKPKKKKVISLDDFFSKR
T1 sequence (P81412 1-613 partner): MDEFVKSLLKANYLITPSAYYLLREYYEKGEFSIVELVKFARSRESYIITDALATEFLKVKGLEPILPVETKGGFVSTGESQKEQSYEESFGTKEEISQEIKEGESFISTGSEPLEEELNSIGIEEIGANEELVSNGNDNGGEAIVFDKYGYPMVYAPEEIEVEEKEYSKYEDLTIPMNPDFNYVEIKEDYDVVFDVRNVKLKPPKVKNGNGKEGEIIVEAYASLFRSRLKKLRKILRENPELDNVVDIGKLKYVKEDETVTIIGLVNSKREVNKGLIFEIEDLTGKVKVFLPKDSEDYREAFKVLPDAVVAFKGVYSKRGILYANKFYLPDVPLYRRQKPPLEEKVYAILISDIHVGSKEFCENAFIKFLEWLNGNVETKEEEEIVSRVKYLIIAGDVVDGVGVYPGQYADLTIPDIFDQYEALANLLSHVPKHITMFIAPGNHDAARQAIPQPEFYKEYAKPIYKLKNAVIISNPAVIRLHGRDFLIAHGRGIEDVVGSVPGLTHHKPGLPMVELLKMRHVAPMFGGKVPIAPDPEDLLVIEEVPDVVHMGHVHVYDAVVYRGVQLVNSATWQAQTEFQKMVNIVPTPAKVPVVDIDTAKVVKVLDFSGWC
Put plainly: Inhibition by aphidicolin of the DNA polymerase of the present invention. To be noted: 2.0 mM aphidicolin. The format is biochemical. The protocol: (§1) In order to compare the modes of inhibition by inhibitors, the modes of inhibition of the DNA polymerase of the present invention and an α-type DNA polymerase derived from Pyrococcus furiousus (Pfu DNA polymerase, manufactured by Stratagene), a known DNA polymerase, were compared using a specific inhibitor of α-type DNA polymerases, aphidicolin. The activity changes were examined, while the aphidicolin concentration was increased from 0 to 2.0 mM in the presence of 20 mM Tris-HCl, pH 7.7, 15 mM MgCl2, 2 mM 2-mercaptoethanol, 0.2 mg/ml activated DNA, and 40 μM each of dATP, dGTP, dCTP and dTTP.

In the next assay the target is T2, Pfu DNA polymerase (Pyrococcus furiosus, UniProt P61875).
T2 construct: purchased Stratagene
T2 sequence (P61875 1-775): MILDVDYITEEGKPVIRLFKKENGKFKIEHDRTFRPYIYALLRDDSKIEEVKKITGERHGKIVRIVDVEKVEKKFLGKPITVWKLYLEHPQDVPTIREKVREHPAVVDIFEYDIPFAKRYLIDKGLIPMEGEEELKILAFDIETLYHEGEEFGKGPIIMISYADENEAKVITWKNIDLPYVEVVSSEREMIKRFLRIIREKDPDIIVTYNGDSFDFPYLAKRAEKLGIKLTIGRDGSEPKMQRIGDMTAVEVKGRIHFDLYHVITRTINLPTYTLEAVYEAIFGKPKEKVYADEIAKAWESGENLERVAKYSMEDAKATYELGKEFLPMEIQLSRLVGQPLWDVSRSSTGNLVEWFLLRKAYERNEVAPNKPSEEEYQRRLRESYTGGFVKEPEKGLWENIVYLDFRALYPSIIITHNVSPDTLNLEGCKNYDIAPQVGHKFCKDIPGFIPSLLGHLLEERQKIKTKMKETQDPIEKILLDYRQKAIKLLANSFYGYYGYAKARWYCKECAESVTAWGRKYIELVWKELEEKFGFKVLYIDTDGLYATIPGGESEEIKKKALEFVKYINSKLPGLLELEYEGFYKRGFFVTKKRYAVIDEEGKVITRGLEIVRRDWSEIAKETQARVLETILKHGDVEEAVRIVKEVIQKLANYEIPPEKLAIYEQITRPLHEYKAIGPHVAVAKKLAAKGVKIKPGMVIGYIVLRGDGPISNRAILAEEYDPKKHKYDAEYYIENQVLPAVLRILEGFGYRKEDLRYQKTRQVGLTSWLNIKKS
Put plainly: Inhibition by aphidicolin of Pfu DNA polymerase. To be noted: 1.0 mM aphidicolin. The assay is classed as biochemical, Pyrococcus furiousus. The protocol: as §1

In the case of `C[C@@]1(CO)[C@H](O)CC[C@@]2(C)[C@H]1CC[C@H]1C[C@@H]3C[C@@]12CC[C@]3(O)CO` [aphidicolin], the “inhibition of the DNA polymerase of the present invention” value in assay [1] is “not inhibited at all”. Besides, on Pfu DNA polymerase, the “activity of the Pfu DNA polymerase relative to the original activity” value amounted to 20%.

The record behind these values is US6395526B1, “DNA polymerase” (Takara Shuzo Co., Ltd., priority 1995, dated 2002).
